No end group written: not given here.
Key:
[1] = system: normal oral and gastric organoids; type: cell-based, human
Text: (§1) Toxicity tests on human organoid s. Organoids have been established in our lab.
(§2) Ethical approval of the study and the written consent/permission forms were obtained from Institutional Review Board (IRB) at Hunan N ormal University before the study commencement. For each patient, written permission form was reviewed and signed by themselves. According to the literature14,15, briefly, the tissue samples obtained from patients were removed excess fat or muscle tissues and cut into small fragments.
(§3) The fragments were washed thoroughly, then digested and centrifuged to obtain cell pellet. The resulting pellet was resuspended in ice-cold 70 % BME for incubating 15 min and then the organoid medium was added. The composition of oral and gastric organoid medium was as follows: […]
(§4) 50- AGGGTATCTAATCCT-30) and the final amplicon was quantified using a Qubit dsDNA assay kit (Life Technologies, California, United States). […]
(§5) The operational taxonomic units (OTUs) were generated using Vsearch software with a 97% similarity cutoff. The QIIME package and the RDP classifier (confidence threshold was 70%) were performed to select the representative read of each OTU and annotate and BLAST against the Silva database Version 123, respectively. […]

normal oral organoids = type: cell-based, human; settings: 1 day
Text: as §1, §2, §3, §4, §5

normal gastric organoids = type: cell-based, human; settings: 1 day
Text: as §1, §2, §3
(§6) Human gastric organoid medium contains Advanced Dulbecco’s Modified Eagle’s […]
GlutaMAX,1×B27 supplement (Life Technologies), 50 ng/mL human EGF […]
as §4, §5

[2] = system: oral microbiota and gingival, palatal and gastric tissues; type: in vivo, Kuming mice; settings: for H&E staining of gingival, palatal and gastric tissues / oral microbiota diversity / ecological balance (PCoA, Chao, Shannon) / abundance of top three phyla (Bacteroidetes, Firmicutes, Proteobacteria): 0.2%, 100 μL, once per day for 7 days; for oral microbiota diversity / ecological balance (PCoA, Chao, Shannon) / abundance of top three phyla (Bacteroidetes, Firmicutes, Proteobacteria): n = 8; for abundance of top three phyla (Bacteroidetes, Firmicutes, Proteobacteria): saliva on 8th day; for tooth staining: data not shown
Text: Toxicity tests on mice. Furthermore, 35- 40 g fe male Kuming mice were also purchased from Slac & Jingda Corporation of laboratory animals, Changsha, China to systematically evaluate the toxicity of pHly -1 NPs to oral microflora and soft tissue in mice. All animals were randomly placed into three treatment groups, and pHly-1 NPs or CHX in aqueous solution was gradually added to mice mouth once a day for seven days. Considering the concentration of CHX used in clinic is usually 0.2 %, we determined that the concentration of the pHly -1 NPs rinsed mouse’s mouth is also 0.2 % and the volume was 100 μ L. At the 8th day, saliva was drawn for oral microbiome analysis, and gingival, palatal and gastric tissues were collected for histopathological […]
Oral flora 16S rRNA sequencing. Total genomic DNA of oral samples was extracted in OE Biotech Company (Shanghai, China) using a QIAamp DNA Stool Mini Kit (Qiagen, Germantown, MD, USA). Bacterial DNA was amplified with primers […]
targeting the V3- V4 regions (50- TACGGRAGGCAGCAG- 30,
50- AGGGTATCTAATCCT-30) and the final amplicon was quantified using a Qubit dsDNA assay kit (Life Technologies, California, United States). Equal amounts of purified amplicons were pooled for subsequent sequencing by the Illumina Nova 6000 platform (Illumina, USA) (Shanghai Oebiotech Co., Ltd., Shanghai, China). The raw data were treated and processed using the QIIME software package (version 1.8.0).
The operational taxonomic units (OTUs) were generated using Vsearch software with a 97% similarity cutoff. The QIIME package and the RDP classifier (confidence threshold was 70%) were performed to select the representative read of each OTU and annotate and BLAST against the Silva database Version 123, respectively.
Furthermore, the microbial diversity in oral samples was estimated by using the alpha diversity that include Chao1 and Shannon index. The bacterial diversity between groups was compared using the Wilcoxon rank sum test.

[3] = system: S. mutans UA159 infection of teeth; test: In vivo rodent model simulating severe childhood caries; parameters: species or system Sprague-Dawley rat pups; settings: for body weights vs control: after 35 days of topical treatment, 100 μM; for H&E staining of gingival, palatal and gastric tissues: caries study, Figure S12
Text: For each patient, written permission form was reviewed and signed. […]
In vivo rodent model simulating severe childhood caries. All the animal studies were approved by the Institutional Animal Care and Use Committee (IACUC) of Hunan Normal University, and the National Institutes of Health guidelines for the performance of animal experiments were followed. 15 days -old female Sprague– Dawley rat pups were purchased with their dams from Slac & Jingda Corporation of laboratory animals, Changsha, China. All animals should be checked for the pathogen […]
infections especially for the S.mutans by plating oral swabs on mitis salivarius agar plus bacitracin. The animals were then infected by mouth with S. mutans UA159 (mid-logarithmic) 4 times (once a day) by pipetting 0.1 mL of a cell suspension containing 2 × 10^8 colony-forming units into their mouths. When the infection was confirmed, all the pups were randomly placed into three treatment groups, and their teeth were treated topically once a day for a total 35 days using the swabs plus modified syringe. The concentration of CHX and pHly -1 NPs was 100 μM and the volume was 300 μ L. The three treatment groups were: (1) control (PBS, pH 4.5); (2) CHX (100 μ M, dissolve in PBS, pH 4.5); (3) pHly -1 NPs (100 μM, dissolve in PBS, pH 4.5). Each group was provided the National Institutes of Health cariogenic diet 2000 and water containing 5% sucrose. After 35 days of treatment, all animals were sacrificed and jaws were collected according the literature . Determination of caries score of the jaws was performed by a calibrated examiner who was blind for the study by using codified samples according to Lar son’s modification of Keyes’ system 11 -13. […]
The fragments were washed thoroughly, then digested and centrifuged to obtain cell pellet. The resulting pellet was resuspended in ice-cold 70 % BME for incubating 15 min and then the organoid medium was added. The composition of oral and gastric organoid medium was as follows:
Human oral organoid medium contains Advanced Dulbecco’s Modified Eagle’s Medium/F12 supplemented with penicillin/streptomycin, 10 mM HEPES, 2 mM GlutaMAX, 1×B27 supplement (Life Technologies), 1.25 mM N -acetyl-l-cysteine (Sigma-Aldrich), 10 mM Nicotinamide (Sigma-Aldrich), 50 ng/mL human EGF (PeproTech), 500 nM A83- 01(Tocris Bioscience), 10 ng/mL human FGF10
(PeproTech), 5 ng/mL human FGF2 (PeproTech), 1 μM Prostaglandin E2 (Tocris Bioscience), 3 μM CHIR 99021 (Sigma -Aldrich), 1μM Foskolin, 100 μg/mL […]
as §6
GlutaMAX,1×B27 supplement (Life Technologies), 50 ng/mL human EGF
(PeproTech), 200 ng/mL human FGF10 (PeproTech), 1.25 mM N-acetyl-l-cysteine (Sigma-Aldrich), 10 nM Gastin-l, 500 nM A83- 01 (Tocris Bioscience), 10 μM […]
Prostaglandin E2 (Tocris Bioscience), 100 ng/mL human recombinant IGF-1 (Bio Legend), 3 μM CHIR 99021 (Sigma-Aldrich), 10 mM Nicotinamide (Sigma-Aldrich).
For the organoid toxicity assay, organoids were digested into single cells. After centrifugation and washing, single cells were plated in 70 % BME and then added to 96-well plates (5 μ L/well). After that, 100 μ L organoid medium was added into the […]

| Molecule | effect on both organoids [1] | effect on oral organoid viability (normal oral organoids; 500 μM) | effect on gastric organoid viability (normal gastric organoids; 500 μM) | H&E staining of gingival, palatal and gastric tissues [2] | oral microbiota diversity / ecological balance (PCoA, Chao, Shannon) [2] | abundance of top three phyla (Bacteroidetes, Firmicutes, Proteobacteria) [2] | tooth staining [2] | body weights vs control [3] | H&E staining of gingival, palatal and gastric tissues [3] | concentration inducing organoid death or decreased viability [1] | oral organoid death (normal oral organoids; 15.6 μM) | gastric organoids death (normal gastric organoids; 31.25 μM) | caries lesions on sulcal and smooth surfaces (Keyes' scoring, Larson's modification) vs control ([3]; topical 100 μM, 300 μL, pH 4.5, once per day, 35 days, n = 8) |
| --- | --- | --- | --- | --- | --- | --- | --- | --- | --- | --- | --- | --- | --- |
| KIWFHAMHIIAHFIAHQHLHQHL-NH2 [pHly-1 NPs] | no apparent effect | no apparent viability decrease | no obvious effect | no visible signs of harmful effects | did not disrupt the ecological balance of the microbiota | did not affect their abundance | not observed | No significant difference in body weights | no detectable signals for the harmful effect |  |  |  |  |
| [H]/N=C(\N/C(=N/[H])NCCCCCCNC(=N)NC(=N)Nc1ccc(Cl)cc1)Nc1ccc(Cl)cc1 [CHX, chlorhexidine] |  |  |  | epithelial cell shedding and structural damage of gastric tissue | reduced the oral microbiota diversity | significantly increased the abundance of Firmicutes species | occasionally present | No significant difference in body weights | no detectable signals for the harmful effect | ~ 20 μM | about 60% | about 40% | alleviated severe lesions |

Reference: publication PMC9254247, “Dual-sensitive antibacterial peptide nanoparticles prevent dental caries” (Theranostics, 2022)
